Experimental data as given in US9060971B2, “Combination pharmaceutical agents as inhibitors of HCV replication” (Enanta Pharmaceuticals, Inc., priority 2010, dated 2015).

Tested on: HCV 1b genotype replicon
Assay: HCV replicon drug screening assay (quantitative RT-PCR or luciferase), genotype 1b
Type: cell-based
Conditions: Hepatitis C virus; HCV 1b genotype replicon; quantitative RT-PCR or luciferase assay; read-out: Genotype-1b replicon EC50 Range
Source text: HCV replicon cell lines (kindly provided by R. Bartenschlager) isolated from colonies as described by Lohman et. al. (Lohman et al. (1999) Science 285: 110-113, expressly incorporated by reference in its entirety) and used for all experiments. The HCV replicon has the nucleic acid sequence set forth in EMBL Accession No.: AJ242651, the coding sequence of which is from nucleotides 1801 to 8406.
The coding sequence of the published HCV replicon was synthesized and subsequently assembled in a modified plasmid pBR322 (Promega, Madison, Wis.) using standard molecular biology techniques. One replicon cell line (“SGR 11-7”) stably expresses HCV replicon RNA which consists of (i) the HCV 5′UTR fused to the first 12 amino acids of the capsid protein, (ii) the neomycin phosphotransferase gene (neo), (iii) the IRES from encephalomyocarditis virus (EMCV), and (iv) HCV NS2 to NS5B genes and the HCV 3′UTR. Another replicon cell line (“Huh-luc/neo-ET”) described by Vrolijk et. al. (Vrolijk et. al. (2003) Journal of Virological Methods 110:201-209, expressly incorporated by reference in its entirety) stably expresses HCV replicon RNA which consists of (i) the HCV 5′UTR fused to the first 12 amino acids of the capsid protein, (ii) the firefly luciferase reporter gene, (iii) the ubiquitin gene, (iv) the neomycin phosphotransferase gene (neo), (v) the IRES from encephalomyocarditis virus (EMCV), and (vi) HCV NS3 to NS5B genes that harbor cell culture adaptive mutations (E1202G, T12801, K1846T) and the HCV 3′UTR.
These cell lines are maintained at 37° C., 5% CO2, 100% relative humidity in DMEM (Cat#11965-084, Invitrogen), with 10% fetal calf serum (“FCS”, Invitrogen), 1% non-essential amino acids (Invitrogen), 1% of Glutamax (Invitrogen), 1% of 100× penicillin/streptomycin (Cat#15140-122, Invitrogen) and Geneticin (Cat#10131-027, Invitrogen) at 0.75 mg/ml or 0.5 mg/ml for 11-7 and Huh-luc/neo-ET cells, respectively.
EC50 values of single agent compounds and combinations were determined by HCV RNA detection using quantitative RT-PCR, according to the manufacturer's instructions, with a TAQMAN® One-Step RT-PCR Master Mix Reagents Kit (Cat#AB 4309169, Applied Biosystems) on an ABI Model 7500 thermocycler. The TaqMan primers to use for detecting and quantifying HCV RNA are 5′-GCTGCGGCCTGTCGAGCT-3′ (SEQ ID NO: 1), 5′-CAAGGTCGTCTCCGCATAC-3′ (SEQ ID NO: 2) and the probe 5′-FAM-[…]-BHQ-3′ (SEQ ID NO: 3) obtained from Integrated DNA Technologies. HCV RNA is normalized to GAPDH RNA levels in drug-treated cells, which is detected and quantified using the Human GAPDH Endogenous Control Mix (Applied Biosystems, AB 4310884E). Total cellular RNA is purified from 96-well plates using the RNAqueous 96 kit (Ambion, Cat#AM1812). Chemical agent cytotoxicity was evaluated using an MTS assay according to the manufacturer's directions (Promega).
The compounds described herein can be effective against the HCV 1b genotype. It should also be understood that the compounds can inhibit multiple genotypes of HCV. In one embodiment, compounds of Formula (I) are active against the 1a, 1b, 2a, 2b, 3a, 4a, and 5a genotypes. […] The EC50 ranges were classified into the following groups: A>10 nM; B 1-10 nM; C<1 nM. The potential cytotoxicities of each agent were analyzed in parallel by MTS assay and are greater than 3 uM for all agents.

| Compound | EC50 [nM] |
| --- | --- |
| COC(=O)N[C@H](C(=O)N1CCC[C@H]1c1nc2cc(-c3ccc4cc(-c5c[nH]c([C@@H]6CCCN6C(=O)[C@@H](NC(=O)OC)[C@@H](C)OC)n5)ccc4c3)ccc2[nH]1)[C@@H](C)O [Compound 53] | < 1 |
| CC[C@H](C)[C@H](NC(=O)OC)C(=O)N1CCC[C@H]1c1nc2cc(-c3ccc4cc(-c5c[nH]c([C@@H]6CCCN6C(=O)[C@@H](NC(=O)OC)[C@@H](C)OC)n5)ccc4c3)ccc2[nH]1 [Compound 54] | < 1 |
| COC(=O)N[C@H](C(=O)N1CCC[C@H]1c1nc(C#Cc2ccc(-c3ccc4[nH]c([C@@H]5CCCN5C(=O)[C@@H](NC(=O)OC)C(C)C)nc4c3)cc2)c[nH]1)C(C)C [Compound 55] | < 1 |
| COC(=O)N[C@H](C(=O)N1CCC[C@H]1c1nc(CCc2ccc(-c3ccc4[nH]c([C@@H]5CCCN5C(=O)[C@@H](NC(=O)OC)C(C)C)nc4c3)cc2)c[nH]1)C(C)C [Compound 56] | < 1 |
| COC(=O)N[C@H](C(=O)N1CCC[C@H]1c1nc(C#Cc2ccc3cc(-c4ccc5[nH]c([C@@H]6CCCN6C(=O)[C@@H](NC(=O)OC)C(C)C)nc5c4)ccc3c2)c[nH]1)C(C)C [Compound 57] | < 1 |
| COC(=O)N[C@H](C(=O)N1CCC[C@H]1c1nc(CCc2ccc3cc(-c4ccc5[nH]c([C@@H]6CCCN6C(=O)[C@@H](NC(=O)OC)C(C)C)nc5c4)ccc3c2)c[nH]1)C(C)C [Compound 58] | < 1 |
| COC(=O)N[C@H](C(=O)N1CCC[C@H]1c1nc(-c2ccc(C#Cc3ccc4[nH]c([C@@H]5CCCN5C(=O)[C@@H](NC(=O)OC)[C@@H](C)OC)nc4c3)cc2)c[nH]1)[C@@H](C)OC [Compound 59] | < 1 |
| COC(=O)N[C@H](C(=O)N1CCC[C@H]1c1nc(-c2ccc3cc(C#Cc4ccc5[nH]c([C@@H]6CCCN6C(=O)[C@@H](NC(=O)OC)C(C)C)nc5c4)ccc3c2)c[nH]1)C(C)C [Compound 60] | < 1 |
| COC(=O)N[C@H](C(=O)N1CCC[C@H]1c1nc(-c2ccc3cc(/C=C/c4ccc5[nH]c([C@@H]6CCCN6C(=O)[C@@H](NC(=O)OC)C(C)C)nc5c4)ccc3c2)c[nH]1)C(C)C [Compound 61] | < 1 |
| COC(=O)N[C@H](C(=O)N1CCC[C@H]1c1nc(-c2ccc(C#Cc3ccc4[nH]c([C@@H]5CCCN5C(=O)[C@@H](OC(=O)OC)C(C)C)nc4c3)cc2)c[nH]1)C(C)C [Compound 62] | < 1 |
| CCOC(=O)N[C@H](C(=O)N1CCC[C@H]1c1nc2cc(C#Cc3ccc(-c4c[nH]c([C@@H]5CCCN5C(=O)[C@@H](NC(=O)OC)C(C)C)n4)cc3)ccc2[nH]1)C(C)C [Compound 63] | < 1 |
| COC(=O)N[C@H](C(=O)N1CCC[C@H]1c1nc(-c2ccc(C#Cc3cc(F)c4[nH]c([C@@H]5CCCN5C(=O)[C@@H](NC(=O)OC)C(C)C)nc4c3)cc2)c[nH]1)C(C)C [Compound 64] | < 1 |
| COC(=O)N[C@H](C(=O)N1CCC[C@H]1c1nc(-c2ccc(C#Cc3cc4nc([C@@H]5CCCN5C(=O)[C@@H](NC(=O)OC)C(C)C)[nH]c4cc3Cl)cc2)c[nH]1)C(C)C [Compound 65] | < 1 |
| COC(=O)N[C@H](C(=O)N1CCC[C@H]1c1nc(-c2ccc(C#Cc3ccc4[nH]c([C@@H]5CC(=O)CN5C(=O)[C@@H](NC(=O)OC)C(C)C)nc4c3)cc2)c[nH]1)C(C)C [Compound 66] | < 1 |
| [2H]c1c([2H])c(-c2c[nH]c([C@@H]3CCCN3C(=O)[C@@H](NC(=O)OC)C(C)C)n2)c([2H])c([2H])c1C#Cc1ccc2[nH]c([C@@H]3CCCN3C(=O)[C@@H](NC(=O)OC)C(C)C)nc2c1 [Compound 67] | < 1 |
| COC(=O)N[C@H](C(=O)N1CCC[C@H]1c1nc(-c2ccc3cc(-c4cc5nc([C@@H]6CCCN6C(=O)[C@@H](NC(=O)OC)C(C)C)[nH]c5cc4Cl)ccc3c2)c[nH]1)C(C)C [Compound 68] | < 1 |
| COC(=O)N[C@H](C(=O)N1CCC[C@H]1c1nc(-c2ccc(/C=C/c3ccc4[nH]c([C@@H]5CCCN5C(=O)[C@@H](NC(=O)OC)C(C)C)nc4c3)cc2)c[nH]1)C(C)C [Compound 69] | < 1 |

| Compound | EC50 [nM] |
| --- | --- |
| C=C(c1ccc(-c2c[nH]c([C@@H]3CCCN3C(=O)[C@@H](NC(=O)OC)C(C)C)n2)cc1)c1ccc2nc([C@@H]3CCCN3C(=O)[C@@H](NC(=O)OC)C(C)C)[nH]c2c1 [Compound 70] | < 1 |
| COC(=O)N[C@H](C(=O)N1CCC[C@H]1c1nc(-c2ccc(CCc3ccc4[nH]c([C@@H]5CCCN5C(=O)[C@@H](NC(=O)OC)C(C)C)nc4c3)cc2)c[nH]1)C(C)C [Compound 71] | < 1 |
| COC(=O)N[C@H](C(=O)N1CCC[C@H]1c1ncc(-c2ccc([C@H]3C[C@@H]3c3ccc4nc([C@@H]5CCCN5C(=O)[C@@H](NC(=O)OC)C(C)C)[nH]c4c3)cc2)[nH]1)C(C)C [Compound 72] | < 1 |
| COC(=O)N[C@H](C(=O)N1CCC[C@H]1c1ncc(-c2ccc([C@@H]3C[C@H]3c3ccc4nc([C@@H]5CCCN5C(=O)[C@@H](NC(=O)OC)C(C)C)[nH]c4c3)cc2)[nH]1)C(C)C [Compound 73] | < 1 |
| COC(=O)N[C@H](C(=O)N1CCC[C@H]1c1ncc(-c2ccc(-c3ccc(-c4ccc5nc([C@@H]6CCCN6C(=O)[C@@H](NC(=O)OC)C(C)C)[nH]c5c4)cc3)cc2)[nH]1)C(C)C [Compound 74] | < 1 |
| COC(=O)N[C@H](C(=O)N1CCC[C@H]1c1nc(-c2ccc(C#Cc3ccc4[nH]c([C@@H]5CCCN5C(=O)OC(C)(C)C)nc4c3)cc2)c[nH]1)C(C)C [Compound 75] | 1 to 10 |
| COC(=O)N[C@@H](C)C(=O)N1CCC[C@H]1c1nc2cc(C#Cc3ccc(-c4c[nH]c([C@@H]5CCCN5C(=O)[C@@H](NC(=O)OC)C(C)C)n4)cc3)ccc2[nH]1 [Compound 76] | < 1 |
| CC[C@H](NC(=O)OC)C(=O)N1CCC[C@H]1c1nc2cc(C#Cc3ccc(-c4c[nH]c([C@@H]5CCCN5C(=O)[C@@H](NC(=O)OC)C(C)C)n4)cc3)ccc2[nH]1 [Compound 77] | < 1 |
| CCC[C@H](NC(=O)OC)C(=O)N1CCC[C@H]1c1nc2cc(C#Cc3ccc(-c4c[nH]c([C@@H]5CCCN5C(=O)[C@@H](NC(=O)OC)C(C)C)n4)cc3)ccc2[nH]1 [Compound 78] | < 1 |
| COC(=O)N[C@H](C(=O)N1CCC[C@H]1c1nc(-c2ccc(C#Cc3ccc4[nH]c([C@@H]5CCCN5C(=O)[C@H](NC(=O)OC)c5ccccc5)nc4c3)cc2)c[nH]1)C(C)C [Compound 79] | < 1 |
| COC(=O)N[C@H](C(=O)N1CCC[C@H]1c1nc(-c2ccc(C#Cc3ccc4[nH]c([C@@H]5CCCN5C(=O)[C@@H](NC(=O)OC)[C@@H](C)OC)nc4c3)cc2)c[nH]1)C(C)C [Compound 80] | < 1 |
| COC(=O)N[C@H](C(=O)N1CCC[C@H]1c1nc(-c2ccc(C#Cc3ccc4[nH]c([C@@H]5CCCN5C(=O)[C@@H](NC(C)=O)C(C)C)nc4c3)cc2)c[nH]1)C(C)C [Compound 81] | < 1 |
| COC(=O)N[C@H](C(=O)N1CCC[C@H]1c1nc(-c2ccc(C#Cc3ccc4[nH]c([C@@H]5CCCN5C(=O)[C@@H](c5ccccc5)C(C)C)nc4c3)cc2)c[nH]1)C(C)C [Compound 82] | < 1 |
| COC(=O)N[C@H](C(=O)N1CCC[C@H]1c1nc(-c2ccc(C#Cc3ccc4[nH]c([C@@H]5CCCN5C(=O)[C@H](NC(=O)OC)C(C)C)nc4c3)cc2)c[nH]1)C(C)C [Compound 83] | < 1 |
| COC(=O)N[C@H](C(=O)N1CCC[C@H]1c1nc2cc(C#Cc3ccc(-c4c[nH]c([C@@H]5CCCN5C(=O)[C@@H](NC(=O)OC)C(C)C)n4)cc3)ccc2[nH]1)c1ccccc1 [Compound 84] | < 1 |
| COC(=O)N[C@H](C(=O)N1CCC[C@H]1c1nc2cc(C#Cc3ccc(-c4c[nH]c([C@@H]5CCCN5C(=O)OC(C)(C)C)n4)cc3)ccc2[nH]1)C(C)C [Compound 85] | < 1 |
